US9200046B2, “Reporter system for high throughput screening of compounds and uses thereof” (priority 2011, dated 2015)
Where a name gives a salt, the structure may show the parent alone. Read-outs that look alike come from different tables or passages of the source.

Target: Nrf2-Keap1 complex (Homo sapiens, UniProt Q14145)
Assay: cell-based
Format: cell-based
Settings: for activation at 16 µM / activation at 32 µM: 3 h; for activation at 16 µM: read-out: Activation 100 nL; for activation at 32 µM: read-out: Activation 200 nL
[1] = Table 2, 100 nL compound, screen run at 16 and 32 μM, 3 hr
[2] = Table 2, 200 nL compound, screen run at 16 and 32 μM, 3 hr
[3] = Table 1A, 100 nL compound, screen run at 16 and 32 μM, 3 hr
[4] = Table 1A, 200 nL compound, screen run at 16 and 32 μM, 3 hr

Chain of Nrf2-Keap1 complex (Q14145 whole entry, one chain of several): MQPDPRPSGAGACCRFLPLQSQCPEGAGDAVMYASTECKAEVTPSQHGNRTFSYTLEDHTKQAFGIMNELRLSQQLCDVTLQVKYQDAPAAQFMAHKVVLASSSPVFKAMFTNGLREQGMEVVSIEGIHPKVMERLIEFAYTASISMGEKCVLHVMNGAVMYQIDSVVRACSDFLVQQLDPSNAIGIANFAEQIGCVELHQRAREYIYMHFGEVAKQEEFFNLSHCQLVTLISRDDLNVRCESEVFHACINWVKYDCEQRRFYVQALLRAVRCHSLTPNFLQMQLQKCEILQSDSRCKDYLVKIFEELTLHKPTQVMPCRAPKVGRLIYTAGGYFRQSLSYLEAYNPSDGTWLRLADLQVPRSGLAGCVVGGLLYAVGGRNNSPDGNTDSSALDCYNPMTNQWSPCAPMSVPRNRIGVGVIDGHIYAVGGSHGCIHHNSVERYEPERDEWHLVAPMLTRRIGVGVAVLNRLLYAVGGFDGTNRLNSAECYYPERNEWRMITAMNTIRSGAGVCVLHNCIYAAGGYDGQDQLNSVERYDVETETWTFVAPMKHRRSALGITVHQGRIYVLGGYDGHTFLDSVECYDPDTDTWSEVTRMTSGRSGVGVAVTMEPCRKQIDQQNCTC

Structure (SMILES)	activation at 16 µM [%]	activation at 32 µM [%]	100 nL (luminescence) [1]	200 nL (luminescence) [2]	other results
NCCc1cc(O)c(O)cc1O [OXIDOPAMINEHYDROCHLORIDE]	107	124	1676	2936	–
O=C(/C=C/C(=O)Oc1ccccc1C(=O)O)Oc1ccccc1C(=O)O [BISSALICYLFUMARATE]	338	156	–	–	–
ClC1=C(Cl)C2(Cl)C3C(Cl)C(Cl)CC3C1(Cl)C2(Cl)Cl (centres unmarked) [CHLORDANE]	107	135	1796	3540	–
CCCCCCCCCCCCCC(=O)O[C@@H]1[C@@H](C)[C@@]2(O)[C@@H](C=C(CO)C[C@]3(O)C(=O)C(C)=C[C@@H]23)[C@@H]2C(C)(C)[C@]12OC(C)=O [PHORBOLMYRISTATEACETATE, reference compound]	47	16	776	712	–
CCC(C)C(=O)c1c(O)c(C)c2oc3c(C)c(O)c(C(=O)C(C)CC)c(O)c3c2c1O (centres unmarked) [RHODOMYRTOXINB]	56	36	–	–	100 nL (luminescence) [3]: 1120; 200 nL (luminescence) [4]: 1276
COC(=O)NC(=S)Nc1ccccc1NC(=S)NC(=O)OC	–	–	712	836	Activation 100 nL: 40%; Activation 200 nL: 21%
COc1cc([C@@H]2c3cc4c(cc3[C@@H](O[C@@H]3O[C@@H]5CO[C@@H](c6cccs6)O[C@H]5[C@H](O)[C@H]3O)[C@H]3COC(=O)[C@H]23)OCO4)cc(OC)c1O [TENIPOSIDE, reference compound]	159	61	3572	1520	Neh2-luc reporter activation: 200%
COc1ccnc(C[S+]([O-])c2nc3cc(OC(F)F)ccc3[nH]2)c1OC (centres unmarked) [PANTOPRAZOLE, reference compound]	25	60	–	–	100 nL (luminescence) [3]: 904; 200 nL (luminescence) [4]: 1504
CCCOc1ccc2nc(NC(=O)OC)[nH]c2c1 [OXIBENDAZOLE, reference compound]	38	36	–	–	100 nL (luminescence) [3]: 1164; 200 nL (luminescence) [4]: 1064
COC(=O)[C@H](O)[C@H]1C(C)(C)[C@H](OC(C)=O)[C@@H]2CC3=C4CC(=O)O[C@@H](c5ccoc5)[C@]4(C)CC[C@@H]3[C@@]1(C)C2=O [SWIETENOLIDE-3-ACETATE]	–	–	1430	2088	Activation 100 nL: 70%; Activation 200 nL: 115%
COC(=O)Nc1nc2cc(C(=O)c3cccs3)ccc2[nH]1 [NOCODAZOLE, reference compound]	28	48	–	–	100 nL (luminescence) [3]: 940; 200 nL (luminescence) [4]: 980
O=C1c2ccccc2C(=O)c2c(O)c(O)cc(O)c21 [PURPURIN]	54	41	1176	952	–
CC(C)CCCC1(C)C=Cc2c(O)c3c(c(CCC(C)C)c2O1)OC12C(CC4CC1C(C)(C)OC2(CCC(C)C(=O)O)C4O)C3=O (centres unmarked) [DECAHYDROGAMBOGICACID]	54	40	1184	936	–
Oc1nc2cc(Cl)c(Cl)cc2nc1O [2,3-DIHYDROXY-6,7-DICHLOROQUINOXALINE]	46	109	1056	1992	–
O=C(O)/C=C/c1ccc(O)c(O)c1 [[…]]	50	61	1040	1840	–
O=c1c(O)c(-c2ccccc2)oc2ccccc12 [3-Hydroxyflavone]	–	–	–	–	hit strength in the screen (words): modest Nrf2 activator
COc1ccc2c(c1)[C@@]1(C)CCC(=O)C[C@H]1CC2 [5beta-12-METHOXY-4,4-BISNOR-8,11,13-PODOCARPATRIEN-3-ONE]	46	13	–	–	100 nL (luminescence) [3]: 768; 200 nL (luminescence) [4]: 636
CC(=O)O[C@H]1C[C@@H](O)C(C)(C)[C@@H]2C[C@@H](OC(C)=O)[C@]3(C)[C@H](CC[C@@]4(C)[C@@H](c5ccoc5)OC(=O)[C@H]5O[C@@]534)[C@@]12C [3-DEACETYLKHIVORIN]	–	–	1628	2102	Activation 100 nL: 94%; Activation 200 nL: 72%
COc1cc([C@@H]2c3cc4c(cc3[C@H](O)[C@H]3COC(=O)[C@@H]23)OCO4)cc(OC)c1OC [PICROPODOPHYLLOTOXIN]	32	57	848	1196	–
CC1(C)C(=O)C=C[C@]2(C)[C@H]3CC[C@@]4(C)[C@H](c5ccoc5)OC(=O)[C@H]5O[C@]54[C@]3(C)[C@H](O)C[C@@H]12 [DEACETYLGEDUNIN]	69	-7	1412	220	–

Structure (SMILES)	activation at 16 µM [%]	activation at 32 µM [%]	100 nL (luminescence) [1]	200 nL (luminescence) [2]	other results
CCC(=O)O[C@H]1[C@H](O[C@@H]2[C@@H](C)[C@H](O[C@H]3C[C@@](C)(OC)[C@@H](O)[C@H](C)O3)[C@@H](C)C(=O)O[C@H](CC)[C@@](C)(O)[C@H](O)[C@@H](C)C(=O)[C@H](C)C[C@@]2(C)O)O[C@H](C)C[C@@H]1N(C)C [ERYTHROMYCINESTOLATE, reference compound]	31	71	–	–	–
Cn1cnc([N+](=O)[O-])c1Sc1[nH]cnc2ncnc1-2 [AZATHIOPRINE, reference compound]	49	70	–	–	100 nL (luminescence): 948; 200 nL (luminescence): 1804; hit strength in the screen (words): modest hits
CC1(C)C2CC(=O)O[C@@]3(C)C4=CC(=O)O[C@@H](c5ccoc5)[C@]4(C)CCC3[C@@]2(C)C=C[C@H]1O (some centres unmarked) [DEOXYANDIROBINLACTONE]	40	52	964	1124	–
CC(=O)Nc1ccc(O)cc1 [ACETAMINOPHEN, reference compound]	53	32	–	–	100 nL (luminescence): 996; 200 nL (luminescence): 1012; Neh2-luc reporter activation: more than 50%
COc1cc(O)c2c(=O)c(O)c(-c3ccc(O)c(O)c3)oc2c1 [RHAMNETIN]	138	47	2216	1536	–
O=C1C=C2C=C[C@@H]3C[C@@]2(O1)[C@H]1CCCCN31 [SECURININE]	84	-14	2068	176	–
CC1(C)C(=O)CC[C@]2(C)[C@H]3CC[C@]4(C)C(=CC(=O)O[C@H]4c4ccoc4)[C@]3(C)[C@H](O)C[C@@H]12 [DIHYDRO-7-DESACETYLDEOXYGEDUNIN]	–	–	1852	1796	Activation 100 nL: 98%; Activation 200 nL: 96%
CC1CCC(NC(=O)N(CCCl)N=O)CC1 (centres unmarked) [SEMUSTINE, reference compound]	39	144	–	–	100 nL (luminescence): 1172; 200 nL (luminescence): 3000
C[C@@H]1C[C@H]2[C@@H]3CCC4=CC(=O)C=C[C@]4(C)[C@@]3(Cl)[C@@H](O)C[C@]2(C)[C@@]1(OC(=O)c1ccco1)C(=O)CCl [MOMETASONEFUROATE, reference compound]	56	140	1508	2936	–
Oc1cc(O)c2c(c1)O[C@H](c1cc(O)c(O)c(O)c1)[C@H](O)C2 [EPIGALLOCATECHIN]	33	-20	864	28	–
O=C1C=C(O)C(=O)c2ccccc21 [LAWSONE]	54	34	–	–	100 nL (luminescence): 840; 200 nL (luminescence): 1140
CC(=O)NC(C(=O)O)C(C)(C)SN=O (centres unmarked) [reference compound]	–	–	1044	1120	Activation 100 nL: 45%; Activation 200 nL: 52%
CC(=O)OC[C@@]1(O)C[C@@]23CC[C@@H]4c5ccoc5CC[C@@]4(C)[C@@H]2CC[C@@H]1C3 [CAFESTOLACETATE]	81	67	1452	1976	–
C=C(C)[C@@H]1CC=C(CO)CC1 [PERILLYLALCOHOL]	31	27	–	–	100 nL (luminescence): 824; 200 nL (luminescence): 736
O=C1c2cccc(O)c2C(=O)c2c(O)cccc21 [DANTRON, reference compound]	29	29	616	1020	–
Nc1ncnc2c1ncn2[C@H]1C[C@H](O)[C@@H](CO)O1 [DEOXYADENOSINE]	32	-3	–	–	100 nL (luminescence): 788; 200 nL (luminescence): 390
C=C[C@@]1(C)CC(=O)[C@]2(O)[C@@]3(C)[C@@H](O)CCC(C)(C)[C@@H]3[C@H](O)[C@H](OC(C)=O)[C@@]2(C)O1 [COLFORSIN, reference compound]	91	120	2208	2568	–
C=C1C2=CC(=O)O[C@@H](c3ccoc3)[C@]2(C)CC[C@@H]1[C@@]1(C)C=CC(=O)C(C)(C)[C@@H]1CC(=O)OC [DEOXYANDIROBIN]	95	106	1816	1944	–
C#C[C@]1(O)CC[C@H]2[C@@H]3CCC4=C(CCC(=O)C4)[C@H]3CC[C@@]21C [NORETHYNODREL, reference compound]	128	171	–	–	100 nL (luminescence): 1948; 200 nL (luminescence): 3920
